Results published in patent US20220242846A1, “ISOINDOLINONE COMPOUNDS” (Monte Rosa Therapeutics AG, priority 2019, published 2022).

These compounds were tested against GSPT1 (Homo sapiens, UniProt P15170+Q96SW2) (assay: Immunofluorescence assay for GSPT1 degradation in CAL-51 cells). Details: GSPT1 degradation, compound treatment 6 hours, read-out: DC50.
Type: cell-based
Parameters: CAL-51 cells were purchased from DSMZ (cat. Number ACC302); endogenous in cells; host or cells: CAL-51 (DSMZ ACC302)
Procedure, shortened: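 CAL-51 cells on fibronectin-coated plates treated 6 h with compound (30 μM to 0.1 nM); fixed, stained with anti-GSPT1/Alexa-488, phalloidin and DAPI, imaged by high-content microscopy. Mean GSPT1 intensity per cell normalized to controls; DC50 by non-linear regression.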

GSPT1, sequence (P15170 whole entry): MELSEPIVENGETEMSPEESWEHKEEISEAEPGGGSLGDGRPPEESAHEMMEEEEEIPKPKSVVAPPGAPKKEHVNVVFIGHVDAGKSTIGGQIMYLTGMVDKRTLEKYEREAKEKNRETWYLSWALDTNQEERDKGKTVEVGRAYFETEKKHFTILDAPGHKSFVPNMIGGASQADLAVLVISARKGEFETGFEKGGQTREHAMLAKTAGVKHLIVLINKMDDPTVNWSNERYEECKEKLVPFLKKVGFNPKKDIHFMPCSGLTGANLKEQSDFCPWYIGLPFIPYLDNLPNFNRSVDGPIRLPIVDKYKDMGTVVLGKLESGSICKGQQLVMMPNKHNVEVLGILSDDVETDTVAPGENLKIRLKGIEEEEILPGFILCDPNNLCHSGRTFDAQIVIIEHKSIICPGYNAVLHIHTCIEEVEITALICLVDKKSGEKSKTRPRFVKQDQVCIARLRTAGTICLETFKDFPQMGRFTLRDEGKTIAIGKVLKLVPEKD
GSPT1, sequence (Q96SW2 whole entry): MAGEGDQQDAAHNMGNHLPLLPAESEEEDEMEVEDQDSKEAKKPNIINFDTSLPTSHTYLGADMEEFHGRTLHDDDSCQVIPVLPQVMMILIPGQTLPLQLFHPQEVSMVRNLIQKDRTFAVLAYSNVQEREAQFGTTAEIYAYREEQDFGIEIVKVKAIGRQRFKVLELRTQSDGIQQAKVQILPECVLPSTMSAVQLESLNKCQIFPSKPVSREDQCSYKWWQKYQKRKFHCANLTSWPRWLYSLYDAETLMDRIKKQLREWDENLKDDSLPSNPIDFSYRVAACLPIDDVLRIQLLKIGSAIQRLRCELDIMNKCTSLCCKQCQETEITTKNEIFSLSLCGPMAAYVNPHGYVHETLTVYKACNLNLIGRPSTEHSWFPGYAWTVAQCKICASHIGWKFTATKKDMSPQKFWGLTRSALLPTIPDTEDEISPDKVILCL
GSPT1, sequence (Q16531 2-1140 partner limits assumed): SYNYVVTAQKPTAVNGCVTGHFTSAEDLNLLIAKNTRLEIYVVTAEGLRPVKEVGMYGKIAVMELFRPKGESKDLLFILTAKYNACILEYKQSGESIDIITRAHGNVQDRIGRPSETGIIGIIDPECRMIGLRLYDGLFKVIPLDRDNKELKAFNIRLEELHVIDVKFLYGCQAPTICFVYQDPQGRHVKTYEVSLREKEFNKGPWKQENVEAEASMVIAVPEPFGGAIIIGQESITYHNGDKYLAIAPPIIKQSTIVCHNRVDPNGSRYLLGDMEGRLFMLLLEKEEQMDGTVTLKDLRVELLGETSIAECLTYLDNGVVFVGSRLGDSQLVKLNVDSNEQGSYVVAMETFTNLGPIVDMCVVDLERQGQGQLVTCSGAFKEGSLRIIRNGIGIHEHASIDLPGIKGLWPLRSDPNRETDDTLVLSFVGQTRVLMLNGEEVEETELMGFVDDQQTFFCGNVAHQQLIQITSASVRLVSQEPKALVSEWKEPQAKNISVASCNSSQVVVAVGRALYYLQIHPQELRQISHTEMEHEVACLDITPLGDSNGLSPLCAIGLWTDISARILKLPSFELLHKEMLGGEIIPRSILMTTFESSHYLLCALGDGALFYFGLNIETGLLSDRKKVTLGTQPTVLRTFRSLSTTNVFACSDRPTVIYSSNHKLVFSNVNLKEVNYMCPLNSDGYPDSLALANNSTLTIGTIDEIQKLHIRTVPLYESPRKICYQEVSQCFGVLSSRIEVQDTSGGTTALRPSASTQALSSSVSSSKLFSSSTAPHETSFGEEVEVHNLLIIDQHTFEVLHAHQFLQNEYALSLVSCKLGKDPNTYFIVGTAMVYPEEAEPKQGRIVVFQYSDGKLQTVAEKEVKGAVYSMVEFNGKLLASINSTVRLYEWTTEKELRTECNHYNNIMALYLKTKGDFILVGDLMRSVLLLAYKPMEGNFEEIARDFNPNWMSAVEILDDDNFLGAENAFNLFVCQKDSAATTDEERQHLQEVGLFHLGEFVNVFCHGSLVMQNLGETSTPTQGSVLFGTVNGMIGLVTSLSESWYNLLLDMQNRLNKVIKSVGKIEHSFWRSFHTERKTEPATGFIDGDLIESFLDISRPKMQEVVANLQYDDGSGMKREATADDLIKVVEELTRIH

Question: How did the DC50 turn out when Cc1cc(C)c(NC(=O)NCc2ccc3c(c2)C(=O)N(C2CCC(=O)NC2=O)C3)cc1Cl (stereo not shown) [Compound 85] was run?
Answer: Its DC50 is 274 nM.

Same assay, conditions: compound treatment 6 hours, read-out: Code: activity for GSPT1 degradation (DC50)

Question: With Cc1c(Cl)cc(NC(=O)NCc2ccc3c(c2)C(=O)N(C2CCC(=O)NC2=O)C3)cc1CN(C)C (stereo not shown) [Compound 75] as the compound, how does the DC50 read?
Answer: Its DC50 is 100 to 300 nM.

Question: Which DC50 does the source give for Cc1c(Cl)cc(NC(=O)NCc2ccc3c(c2)C(=O)N(C2CCC(=O)NC2=O)C3)cc1CN1CCOCC1 (stereo not shown) [Compound 82] here?
Answer: The DC50 was ≤ 100 nM.

Question: Which DC50 does the source give for Cc1cc(C)c(NC(=O)NCc2ccc3c(c2)C(=O)N(C2CCC(=O)NC2=O)C3)cc1Cl (stereo not shown) [Compound 85] here?
Answer: Its DC50 is 100 to 300 nM.

Question: How did the DC50 turn out when Cc1ccc(NC(=O)NCc2ccc3c(c2)C(=O)N(C2CCC(=O)NC2=O)C3)c(Cl)c1Cl (stereo not shown) [Compound 87] was run?
Answer: Its DC50 is > 300 nM.

Question: O=C1CCC(N2Cc3ccc(CNC(=O)Nc4cccc(CN5CCOCC5)c4)cc3C2=O)C(=O)N1 (stereo not shown) [Compound 105] was tested. Which DC50 did it give?
Answer: The DC50 was > 300 nM.

Question: For Cc1c(Cl)cc(NC(=O)NCc2ccc3c(c2)C(=O)N(C2CCC(=O)NC2=O)C3)cc1CC1COCOC1 (stereo not shown) [Compound 132], which DC50 is on record?
Answer: Its DC50 is ≤ 100 nM.
